Patent US9302999B2, “Substituted triazoles as herbicides” (E. I. DU PONT DE NEMOURS AND COMPANY, priority 2012, dated 2016)

What was measured:
Format in all cases: in vivo
[1] = system: rice (Oryza sativa); assay: Test B flooded paddy: rice; conditions: Flood; 250 g ai/ha; applied to paddy water at 2-leaf stage; visually evaluated after 13 to 15 days
How it was run: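 Two-leaf-stage plants, pots flooded (3 cm above soil) and treated through the water, which stayed at that depth. After 13–15 days in greenhouse conditions, visual assessment versus controls: 0 is no effect, 100 complete control, dash means no result.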

[2] = system: morningglory (Ipomoea coccinea); assay: Test C pre-/postemergence: morningglory
How it was run: (§1)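 Visual injury scored 0–100 (100 = complete control) against untreated controls after 13–15 greenhouse days. Surfactant-containing solvent formulations applied either to soil after sowing (loam/sand) or over 1- to 4-leaf plants, 2–18 cm tall.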

[3] = system: winter wheat (Triticum aestivum); assay: Test C pre-/postemergence: winter wheat
How it was run: as §1

[4] = system: ragweed (common ragweed, Ambrosia elation); assay: Test C pre-/postemergence: ragweed
How it was run: as §1

[5] = system: nutsedge, yellow (yellow nutsedge, Cyperus esculentus); assay: Test C pre-/postemergence: nutsedge, yellow
How it was run: as §1

[6] = system: pigweed (Amaranthus retroflexus); assay: Test C pre-/postemergence: pigweed
How it was run: as §1

[7] = system: galium (catchweed bedstraw, Galium aparine); assay: Test C pre-/postemergence: galium
How it was run: as §1

[8] = system: wild oat (Avena fatua); assay: Test C pre-/postemergence: wild oat
How it was run: as §1

[9] = system: pigweed (Amaranthus retroflexus); assay: Test A pre-/postemergence: pigweed
How it was run: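 Compounds, formulated with surfactant in non-phytotoxic solvent, were applied as a directed soil spray preemergence and as postemergence sprays to 2–10 cm, one- to two-leaf seedlings grown in loam soil blended with sand; visual injury, 0–100, assessed ~10 days post-treatment against untreated controls.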

[10] = system: blackgrass (Alopecurus myosuroides); assay: Test C pre-/postemergence: blackgrass
How it was run: as §1

[11] = Postemergence, 31 g ai/ha, scale 0 to 100 (0 no effect, 100 complete control)
[12] = Postemergence, 62 g ai/ha, scale 0 to 100 (0 no effect, 100 complete control)
[13] = Postemergence, 125 g ai/ha, scale 0 to 100, 0 no effect, 100 complete control
[14] = Postemergence, 250 g ai/ha, scale 0 to 100
[15] = Preemergence, 31 g ai/ha, scale of 0 to 100, 0 is no effect, 100 is complete control
[16] = Preemergence, 62 g ai/ha, scale of 0 to 100, 0 is no effect, 100 is complete control
[17] = Preemergence, 125 g ai/ha, scale 0 to 100, 0 no effect, 100 complete control
[18] = Preemergence, 250 g ai/ha, scale 0 to 100, 0 no effect, 100 complete control
[19] = Postemergence, 125 g ai/ha, 0 to 100 scale, 0 is no effect, 100 is complete control
[20] = Postemergence, 500 g ai/ha, visual rating on 0 to 100 scale (0 no effect, 100 complete control), approximately ten days

COc1nn(-c2cccc(F)c2)nc1Cc1ccnc(C(F)(F)F)c1 [Compound 139]
Plant response rating, Rice (0 to 100 scale, 0 is no effect, 100 is complete control) [1]: 45 | Plant response rating, Morningglory [2, 11]: 55 | Plant response rating, Morningglory [2, 12]: 60 | Plant response rating, Morningglory [2, 13]: 60 | Plant response rating, Morningglory [2, 14]: 70 | Plant response rating, Morningglory [2, 15]: 15 | Plant response rating, Morningglory [2, 16]: 15 | Plant response rating, Morningglory [2, 17]: 35 | Plant response rating, Morningglory [2, 18]: 55 | Plant response rating, Wheat [3, 11]: 10 | Plant response rating, Wheat [3, 12]: 10 | Plant response rating, Wheat [3, 13]: 40 | Plant response rating, Wheat [3, 14]: 40 | Plant response rating, Wheat [3, 16]: 0 | Plant response rating, Wheat [3, 17]: 10 | Plant response rating, Wheat [3, 18]: 20 | Plant response rating, Ragweed [4, 12]: 40 | Plant response rating, Ragweed [4, 13]: 45 | Plant response rating, Ragweed [4, 14]: 75 | Plant response rating, Ragweed [4, 15]: 0 | Plant response rating, Ragweed [4, 16]: 0 | Plant response rating, Ragweed [4, 17]: 30 | Plant response rating, Ragweed [4, 18]: 55 | Plant response rating, Nutsedge, Yellow [5, 11]: 10 | Plant response rating, Nutsedge, Yellow [5, 12]: 10 | Plant response rating, Nutsedge, Yellow [5, 13]: 10 | Plant response rating, Nutsedge, Yellow [5, 14]: 25 | Plant response rating, Nutsedge, Yellow [5, 15]: 0 | Plant response rating, Nutsedge, Yellow [5, 16]: 0 | Plant response rating, Nutsedge, Yellow [5, 17]: 0 | Plant response rating, Nutsedge, Yellow [5, 18]: 5 | Plant response rating, Pigweed [6, 11]: 95 | Plant response rating, Pigweed [6, 12]: 98 | Plant response rating, Pigweed [6, 13]: 98 | Plant response rating, Pigweed [6, 14]: 98 | Plant response rating, Pigweed [6, 15]: 98 | Plant response rating, Pigweed [6, 16]: 98 | Plant response rating, Pigweed [6, 17]: 100 | Plant response rating, Pigweed [6, 18]: 100 | Plant response rating, Galium [7, 11]: 60 | Plant response rating, Galium [7, 12]: 70 | Plant response rating, Galium [7, 13]: 80 | Plant response rating, Galium [7, 14]: 80 | Plant response rating, Galium [7, 15]: 5 | Plant response rating, Galium [7, 16]: 80 | Plant response rating, Galium [7, 17]: 85 | Plant response rating, Galium [7, 18]: 95 | Plant response rating, Oat, Wild [8, 11]: 40 | Plant response rating, Oat, Wild [8, 12]: 50 | Plant response rating, Oat, Wild [8, 13]: 60 | Plant response rating, Oat, Wild [8, 14]: 80 | Plant response rating, Oat, Wild [8, 15]: 10 | Plant response rating, Oat, Wild [8, 16]: 50 | Plant response rating, Oat, Wild [8, 18]: 85 | Plant response rating, Pigweed [9, 19]: 100 | Pigweed plant response rating [9, 20]: 100 | Plant response rating, Pigweed ([9]; Preemergence, 125 g ai/ha, 0 to 100 scale where 0 is no effect and 100 is complete control): 100 | Plant response rating, Pigweed ([9]; Preemergence, 500 g ai/ha, 0 to 100 scale (0 no effect, 100 complete control)): 100 | Plant response rating, Blackgrass [10, 11]: 35 | Plant response rating, Blackgrass [10, 12]: 40 | Plant response rating, Blackgrass [10, 13]: 70 | Plant response rating, Blackgrass [10, 14]: 70 | Plant response rating, Blackgrass [10, 15]: 45 | Plant response rating, Blackgrass [10, 16]: 90 | Plant response rating, Blackgrass [10, 17]: 90 | Plant response rating, Blackgrass [10, 18]: 90

Fc1ccc(-n2nc(Cc3ccnc(C(F)(F)F)c3)c(OC(F)F)n2)cc1 [Compound 25]
Plant response rating, Rice (0 to 100 scale, 0 is no effect, 100 is complete control) [1]: 35 | Plant response rating, Wheat [3, 11]: 10 | Plant response rating, Wheat [3, 12]: 20 | Plant response rating, Wheat [3, 13]: 30 | Plant response rating, Wheat [3, 14]: 30 | Plant response rating, Wheat [3, 15]: 0 | Plant response rating, Wheat [3, 16]: 5 | Plant response rating, Wheat [3, 17]: 10 | Plant response rating, Wheat [3, 18]: 35 | Plant response rating, Ragweed [4, 11]: 50 | Plant response rating, Ragweed [4, 12]: 50 | Plant response rating, Ragweed [4, 13]: 60 | Plant response rating, Ragweed [4, 14]: 60 | Plant response rating, Ragweed [4, 15]: 5 | Plant response rating, Ragweed [4, 16]: 5 | Plant response rating, Ragweed [4, 17]: 20 | Plant response rating, Ragweed [4, 18]: 50 | Plant response rating, Nutsedge, Yellow [5, 11]: 5 | Plant response rating, Nutsedge, Yellow [5, 12]: 5 | Plant response rating, Nutsedge, Yellow [5, 13]: 10 | Plant response rating, Nutsedge, Yellow [5, 14]: 10 | Plant response rating, Nutsedge, Yellow [5, 15]: 0 | Plant response rating, Nutsedge, Yellow [5, 16]: 0 | Plant response rating, Nutsedge, Yellow [5, 17]: 0 | Plant response rating, Nutsedge, Yellow [5, 18]: 0 | Plant response rating, Pigweed [6, 11]: 85 | Plant response rating, Pigweed [6, 12]: 95 | Plant response rating, Pigweed [6, 13]: 95 | Plant response rating, Pigweed [6, 14]: 98 | Plant response rating, Pigweed [6, 15]: 100 | Plant response rating, Pigweed [6, 16]: 100 | Plant response rating, Pigweed [6, 17]: 100 | Plant response rating, Pigweed [6, 18]: 100 | Plant response rating, Galium [7, 11]: 50 | Plant response rating, Galium [7, 12]: 50 | Plant response rating, Galium [7, 13]: 55 | Plant response rating, Galium [7, 14]: 55 | Plant response rating, Galium [7, 15]: 0 | Plant response rating, Galium [7, 16]: 15 | Plant response rating, Galium [7, 17]: 80 | Plant response rating, Galium [7, 18]: 98 | Plant response rating, Oat, Wild [8, 11]: 5 | Plant response rating, Oat, Wild [8, 12]: 5 | Plant response rating, Oat, Wild [8, 13]: 30 | Plant response rating, Oat, Wild [8, 14]: 30 | Plant response rating, Oat, Wild [8, 15]: 20 | Plant response rating, Oat, Wild [8, 16]: 30 | Plant response rating, Oat, Wild [8, 17]: 80 | Plant response rating, Oat, Wild [8, 18]: 90 | Pigweed plant response rating [9, 19]: 100 | Pigweed plant response rating [9, 20]: 100 | Plant response rating, Pigweed ([9]; Preemergence, 125 g ai/ha, 0 to 100 scale (0 no effect, 100 complete control)): 100 | Plant response rating, Pigweed ([9]; Preemergence, 500 g ai/ha, 0 to 100 scale, 0 is no effect, 100 is complete control): 100 | Plant response rating, Blackgrass [10, 11]: 10 | Plant response rating, Blackgrass [10, 12]: 35 | Plant response rating, Blackgrass [10, 13]: 40 | Plant response rating, Blackgrass [10, 14]: 60 | Plant response rating, Blackgrass [10, 15]: 60 | Plant response rating, Blackgrass ([10]; Preemergence, 62 g ai/ha, scale 0 to 100, 0 no effect, 100 complete control): 85 | Plant response rating, Blackgrass [10, 17]: 95 | Plant response rating, Blackgrass [10, 18]: 100
